For data set [1], the system named is human bronchial smooth muscle cells. The class given is cell-based. To be noted: for IC50: read-out: IC50 for rapidly inhibiting formoterol uptake by human bronchial smooth muscle cells, 200 nmol/l [3H]-formoterol, mean, n = 6.
The test system of data set [2] is human airway epithelial cells. Nature of the data set: Corticosteroid effect on tritiated drug uptake by airway epithelial cells. In kind it is cell-based. As to conditions: 5 μmol/l.
The target in a further data set is T1, OCT3 (Homo sapiens, UniProt O75751).
T1 sequence (O75751 1-556): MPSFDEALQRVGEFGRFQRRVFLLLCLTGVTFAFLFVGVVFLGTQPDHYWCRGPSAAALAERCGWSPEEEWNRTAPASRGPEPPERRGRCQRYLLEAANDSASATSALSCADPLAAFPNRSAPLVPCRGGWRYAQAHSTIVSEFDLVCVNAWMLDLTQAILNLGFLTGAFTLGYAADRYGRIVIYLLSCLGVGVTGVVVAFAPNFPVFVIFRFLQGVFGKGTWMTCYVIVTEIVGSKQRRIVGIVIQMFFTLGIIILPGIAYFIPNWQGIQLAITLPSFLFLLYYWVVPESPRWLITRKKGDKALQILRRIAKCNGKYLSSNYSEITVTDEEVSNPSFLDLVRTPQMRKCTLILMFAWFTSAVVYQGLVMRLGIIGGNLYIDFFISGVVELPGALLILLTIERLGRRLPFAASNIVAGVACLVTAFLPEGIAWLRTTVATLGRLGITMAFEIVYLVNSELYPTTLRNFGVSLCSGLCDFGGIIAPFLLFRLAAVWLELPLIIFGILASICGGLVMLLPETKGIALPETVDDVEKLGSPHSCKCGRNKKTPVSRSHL
To be noted: bronchial smooth muscle cells, OCT3 targeted shRNA.

For data set [3], the system named is human bronchial smooth muscle cells. Nature of the data set: Cellular drug uptake by bronchial smooth muscle cells. As to conditions: 37°C, 15 min; for cellular uptake in smooth muscle cells: 200 nmol/l [3H]-formoterol or [3H]-salmeterol.
Data set [4] has as its system human airway epithelial cells. Nature of the data set: Cellular drug uptake by airway epithelial cells. As to conditions: 37°C, 15 min; for cellular uptake in airway epithelial cells: 200 nmol/l [3H]-formoterol or [3H]-salmeterol.

Consider six molecules from publication PMC3220932 (Pulmonary pharmacology & therapeutics, 2011).

Molecules are shown by their SMILES.

As usually defined, the IC50 is the concentration at which inhibition is half-maximal. On to `CCC(=O)O[C@]1(C(=O)CO)[C@@H](C)C[C@H]2[C@@H]3CCC4=CC(=O)C=C[C@]4(C)[C@@]3(Cl)[C@@H](O)C[C@@]21C` [Beclomethasone 17-monopropionate], for which, in data set [1] (15-min incubation), the IC50 worked out at 4.04 µM.

For `C[C@]12C[C@H](O)[C@H]3[C@@H](CCC4=CC(=O)CC[C@@]43C)[C@@H]1CC[C@@H]2C(=O)CO` [Corticosterone], the “effect on MPP+ uptake by airway epithelial cells” value in data set [2] (15-min incubation) is “but not airway epithelial cells”. In addition, in data set [2] (15 min), the “effect on salmeterol uptake in epithelial cells” value is recorded as “insensitive to corticosterone” and the “rapid inhibitory effect on formoterol uptake in epithelial cells” value was “not in epithelial cells”. Moreover, the “action on formoterol uptake in presence of transcription inhibitor actinomycin D” value in data set [1] (5 μM, 100 μM actinomycin D added 60 min prior to transport measurements) was “insensitive”. Also, the “effect on MPP+ uptake by bronchial smooth muscle cells” value in data set [1] (5 μmol/l, 15-min incubation) is given as “significantly reduced”. For the same molecule, the “effect on salmeterol uptake in bronchial smooth muscle cells” value in data set [1] (5 μmol/l, 15 min) is “insensitive to corticosterone”. In data set [1] (5 μmol/l, bronchial smooth muscle cells), the “inhibitory action on formoterol uptake after pretreatment for 45 or 90 min” value was “not enhanced”. On OCT3, the “inhibitory effect on formoterol uptake under OCT3 mRNA suppression” value is “reduces”.

As for `CCC(=O)O[C@]1(C(=O)SCF)[C@H](C)C[C@H]2[C@@H]3C[C@H](F)C4=CC(=O)C=C[C@]4(C)[C@@]3(F)[C@@H](O)C[C@@]21C` [Fluticasone propionate], in data set [1] (15-min incubation), the IC50 came to 6.29 µM.

As for `C[n+]1ccc(-c2ccccc2)cc1` [MPP^+, N-methyl-4-phenylpyridinium], in data set [3] (5 nmol/l [3H]-MPP+), the “cellular uptake of MPP+ in smooth muscle cells” value was found to be 0.21 ± 0.02 pmol/mg protein/15 min. Moreover, the “cellular uptake of MPP+ in epithelial cells” value in data set [4] (5 nmol/l [3H]-MPP+) is recorded as 0.18 ± 0.03 pmol/mg protein/15 min.

As to `COc1ccc(CC(C)NCC(O)c2ccc(O)c(NC=O)c2)cc1` (stereo not shown) [formoterol], the “cellular uptake in smooth muscle cells” value in data set [3] is reported as 28.1 ± 1.6 pmol/mg protein/15 min. Besides, the “cellular uptake in airway epithelial cells” value in data set [4] came to 8.9 ± 0.5 pmol/mg protein/15 min.

As to `OCc1cc(C(O)CNCCCCCCOCCCCc2ccccc2)ccc1O` (stereo not shown) [salmeterol], the “cellular uptake in smooth muscle cells” value in data set [3] came out at 306.9 ± 13.3 pmol/mg protein/15 min. Moreover, the “cellular uptake in airway epithelial cells” value in data set [4] is given as 46.6 ± 1.9 pmol/mg protein/15 min.
